From patent publication US10052340B2 (XIAMEN UNIVERSITY, priority 2012, dated 2018)

Columns and labels:
KK-Ay mice = experiment: Mouse trial, KK-Ay diabetes and obesity model mice fed with high-fat diet; format: in vivo
Text: In order to detect the efficacy of abamectin/avermectin, ivermectin and the derivative doramectin in the body of a diabetes and obesity mouse model, we choose diabetes and obesity mouse model mice, KK-Ay mice, as the experimental subject.

[1] = tested on: FXR knockout mouse liver cells; experiment: LPS induced inflammatory gene expression in FXR knockout mouse liver cells; format: cell-based
Text: Ivermectin and LPS are used to treat wild-type and FXR knockout mouse liver cells.

[2] = tested on: FXR targeting genes and genes associated with the saccharide, triglyceride and cholesterol metabolism; experiment: Fluorescence quantitative PCR of liver gene expression in treated wild-type mice; format: in vivo; settings: wild-type mouse liver, real-time PCR, FIG. 13
Protocol: Total RNA is extracted from the tissues using an RNA extraction kit (Omega Bio-Tek, GA). TAKARA reverse transcription kit is used for the reverse transcription, and fluorescence quantitative PCR is performed with CFX™ 96 (BIO-RAD) real-time monitoring system using SYBR green fluorescent dye so as to analyze the gene expression level. The expression level of Actin gene is used as the internal reference for the results. The reaction system comprises SYBR Premix Ex Taq (2×) of 12.5 μl, PCR forward primer (10 μM) of 1 μl, PCR reverse primer (10 μM) of 1 μl, cDNA template of 2 μl, and sterilized distilled water of 8.5 μl, 25 μl in total. The two-step amplification PCR procedures are as follows: pre-denaturation at 95° C. for 30 s, PCR reaction at 95° C. for 5 s, and 60° C. for 40 s. 40 cycles.
The expression of genes associated with saccharides, lipids, and cholesterol metabolism in mouse liver treated with ligand medicaments is detected by fluorescent quantitative real-time PCR.

[3] = tested on: FXR gene deletion homozygous mice (FXR−/−); experiment: Mouse trial, FXR knockout mice fed with high-fat diet; format: in vivo; settings: 1.3 mg/kg i.p. daily, 14 days
Protocol: Wild-type C57BL/6J mice of 9-10 weeks old, and FXR gene deletion homozygous mice (FXR^−/−) and diabetes and obesity mouse model mice (KK-Ay) with the same background are used, fed with high-fat diet (Research Diets, D12492), with free access to water, in SPF grade animal room in experimental animal center, Xiamen University. […] Intraperitoneal injection is performed one time at 9 o'clock every morning, continued for 14 days, and the mice are measured for body weight and the food intake every two days. At the end of 14 days, the mice are provided with free access to water, and after being hungry for 6 h, the mouse body weights are measured, and the percentage of the final body weight relative to the initial body weight before the treatment of the injection trial indicates the change of mouse body weight. Then blood is sampled from the eye balls, and sera are obtained by separation. The components in serum are detected by the following kits respectively: sugar-oxidase method (Beijing Applygen); insulin (Crystal Chem. Inc., USA); total cholesterol and cholesterol in high and low density lipoprotein (Bioassay Systems, USA); triglyceride (Beijing Applygen and WAKO Chemicals Inc., Japan); free fatty acids (Bioassay Systems, USA); and aspartate aminotransferase and alanine aminotransferase (Biosino Bio-technology and Science Inc., Beijing, China). Mouse liver is taken, a part of which is fixed with paraformaldehyde, and embedded with paraffin, sectioned, and stained with hematoxylin and eosin, and a part of which is cryopreserved with liquid nitrogen for use in extracting RNA for measuring gene expression with fluorescence quantitative PCR.

[4] = i.p. daily 14 days, ivermectin/derivatives 1.3 mg/kg, GW4064 30 mg/kg

SMILES: CC[C@H](C)[C@H]1O[C@]2(CC[C@@H]1C)C[C@@H]1C[C@@H](C/C=C(\C)C(O[C@H]3C[C@H](OC)C(O[C@H]4C[C@H](OC)[C@@H](O)[C@H](C)O4)[C@H](C)O3)[C@@H](C)/C=C/C=C3\CO[C@@H]4[C@H](O)C(C)=CC(C(=O)O1)[C@]34O)O2 (stereo partly drawn) [ivermectin]
- serum insulin level (KK-Ay mice; 1.3 mg/kg i.p. daily, 14 days): significantly decreases
- serum saccharides (glucose) level (KK-Ay mice; 1.3 mg/kg i.p. daily, 14 days): significantly decreases
- serum free fatty acids (KK-Ay mice; i.p. daily 14 days, ivermectin 1.3 mg/kg, GW4064 30 mg/kg): significantly decrease
- serum cholesterol (KK-Ay mice; [4]): significantly decrease
- serum triglycerides (KK-Ay mice; [4]): significantly decrease
- expression of inflammatory factors induced by LPS [1]: no clear change
- expression of genes associated with saccharides, lipids and cholesterol metabolism in liver [2]: can regulate the expression of genes associated with metabolism
- serum cholesterol level [3]: not producing any significant change
- serum glucose level [3]: not producing any significant change
- serum insulin level [3]: does not produce any significant change
- cholesterol in high density lipoprotein ([3]; FIG. 8): not affected
- cholesterol in low density/very low density lipoprotein ([3]; FIG. 8): not affected
